Structures can show the parent of a compound that is named as a salt.
Assay: RP, Thermo Scientific Hypersil GOLD, 1.9 µm, 40 °C, 0.4 mL/min; A: water + 0.1% formic acid, pH 3; B: acetonitrile + 0.1% formic acid, pH 3; gradient (min/%B) 0/0 1/0 11/100 13/100 14/0 16/0
Conditions: stereoisomer not certain

Row | Compound | LC retention time [min]
1 | CCCCCCCCCCCCCCCCC(=O)O [HEPTADECANOATE] | 12.7
2 | O=C(O)CNC(=O)c1ccccc1 [HIPPURATE] | 4.92
3 | NC(CO)Cc1cnc[nH]1 (stereo unspecified) [HISTIDINOL] | 0.54
4 | NC1CCSC1=O (stereo unspecified) [HOMOCYSTEINE THIOLACTONE] | 0.72
5 | NC(CCS)C(=O)O (stereo unspecified) [HOMOCYSTEINE] | 0.72
6 | NC(CCSSCCC(N)C(=O)O)C(=O)O (stereo unspecified) [HOMOCYSTINE] | 0.72
7 | NC(CCO)C(=O)O (stereo unspecified) [HOMOSERINE] | 0.62
8 | COc1cc(CC(=O)O)ccc1O [HOMOVANILLATE] | 5.13
9 | Nc1c(O)cccc1C(=O)CC(N)C(=O)O (stereo unspecified) [HYDROXYKYNURENINE] | 0.88
10 | O=C(O)C(O)Cc1ccc(O)cc1 (stereo unspecified) [HYDROXYPHENYLLACTATE] | 4.38
11 | NCCS(=O)O [HYPOTAURINE] | 0.63
12 | O=c1[nH]cnc2nc[nH]c12 [HYPOXANTHINE] | 0.83
13 | CCCCCC(=O)OC(CC(=O)[O-])C[N+](C)(C)C [Hexanoyl-L-carnitine] | 5.67
14 | NC(=O)Cc1c[nH]c2ccccc12 [INDOLE-3-ACETAMIDE] | 5.37
15 | OCCc1c[nH]c2ccccc12 [INDOLE-3-ETHANOL] | 6.28
16 | COC(=O)Cc1c[nH]c2ccccc12 [INDOLE-3-METHYL ACETATE] | 7.44
17 | O=C(O)C(=O)Cc1c[nH]c2ccccc12 [INDOLE-3-PYRUVATE] | 6
18 | O=CCc1c[nH]c2ccccc12 [INDOLEACETALDEHYDE] | 4.34
19 | O=S(=O)(O)Oc1c[nH]c2ccccc12 [INDOXYL SULFATE] | 4.77
20 | O=c1[nH]cnc2c1ncn2C1OC(CO)C(O)C1O (stereo unspecified) [INOSINE] | 1.53
21 | O=C(O)CC(C(=O)O)C(O)C(=O)O (stereo unspecified) [ISOCITRATE] | 2.37
22 | CCC(C)C(N)C(=O)O (stereo unspecified) [ISOLEUCINE] | 1.48
23 | C=C(CC(=O)O)C(=O)O [ITACONATE] | 3.2
24 | Cc1cc(=O)oc(C)c1C(=O)O [Isodehydracetic acid] | 4.13
25 | O=C(O)c1cc[n+]([O-])cc1 [Isonicotinic acid N-oxide] | 0.81
26 | CC(C)CC(=O)NCC(=O)O [Isovaleroylglycine] | 4.6

Row | Compound | LC retention time [min]
27 | CC(C)CC(=O)OC(CC(=O)[O-])C[N+](C)(C)C [Isovaleryl-L-carnitine] | 4.92
28 | Nc1ccccc1C(=O)CC(N)C(=O)O (stereo unspecified) [KYNURENINE] | 3.31
29 | O=C(O)c1cc(=O)c2ccccc2[nH]1 [Kynurenic acid] | 4.67
30 | NC(=O)C[C@H](N)C(=O)O [L-Asparagine] | 0.62
31 | O=C1OC(C(O)CO)C(O)C1O [L-GULONOLACTONE] | 0.66
32 | N[C@@H](CCC(=O)O)C(=O)O [L-Glutamic acid] | 0.65
33 | NC(=O)CC[C@H](N)C(=O)O [L-Glutamine] | 0.62
34 | NC(=O)[C@@H](N)Cc1c[nH]c2ccccc12 [L-TRYPTOPHANAMIDE] | 4.1
35 | CCCCCCCCCCCC(=O)OC(CC(=O)[O-])C[N+](C)(C)C (stereo unspecified) [LAUROYLCARNITINE] | 8.63
36 | NC(Cc1cc(I)c(Oc2ccc(O)c(I)c2)c(I)c1)C(=O)O (stereo unspecified) [LIOTHYRONINE] | 6.99
37 | NC(=O)CCCCC1CCSS1 (stereo unspecified) [LIPOAMIDE] | 6.53
38 | CC(CCC(=O)O)C1CCC2C3CCC4CC(O)CCC4(C)C3CCC12C (stereo unspecified) [LITHOCHOLATE] | 10.5
39 | CC(CCC(=O)NCCS(=O)(=O)O)C1CCC2C3CCC4CC(O)CCC4(C)C3CCC12C (stereo unspecified) [LITHOCHOLYLTAURINE] | 8.73
40 | NC(CCCC(N)C(=O)O)C(=O)O (stereo unspecified) [LL-2-6-DIAMINOHEPTANEDIOATE] | 0.6
41 | Cc1cc2nc3[nH]c(=O)[nH]c(=O)c3nc2cc1C [LUMICHROME] | 6.03
42 | NC(=O)C=CC(=O)O [MALEAMATE] | 0.82
43 | O=C([O-])C=CC(=O)[O-] [MALEATE] | 0.88
44 | O=C1C=CC(=O)N1 [MALEIMIDE] | 0.84
45 | O=C(O)CC(=O)O [MALONATE] | 0.83
46 | O=C([O-])C(O)c1ccccc1 (stereo unspecified) [MANDELATE] | 4.72
47 | COc1ccc2[nH]cc(CCNC(C)=O)c2c1 [MELATONIN] | 6.09
48 | OCC1OC(OCC2OC(O)C(O)C(O)C2O)C(O)C(O)C1O (stereo unspecified) [MELIBIOSE] | 0.63
49 | O=C(O)C(=O)CS [MERCAPTOPYRUVATE] | 0.89
50 | O=C([O-])C(O)C(O)C(=O)[O-] (stereo not drawn) [MESO-TARTRATE] | 0.71
51 | O=C(O)C(=O)C(=O)O [MESOXALATE] | 2.05

Source: the RepoRT retention time repository
